From US11174216B2, “Lipids that increase insulin sensitivity and methods of using the same” (Beth Israel Deaconess Medical Center, Inc., priority 2012, dated 2021)

Legend:
[1] = test system: LPS-activated dendritic cells; assay: LPS-induced maturation/activation of bone marrow-derived dendritic cells; assay type: cell-based, mouse
Experimental: Mouse bone marrow cells were flushed from the femurs and tibiae. The red blood cells were eliminated and the cells plated at a density of 1.0×10^6 cells/mL in RBMI complete medium containing 10% FCS plus 20 ng/ml GM-CSF. The medium was replaced on day 4, and the cells were harvested on day 6 to obtain immature DCs. To obtain mature DCs, LPS was added to the cultures at a final concentration of 100 ng/mL on day 6, and the cells were cultured for an additional 24 h, as previously described by Macia, L., et al. Impairment of dendritic cell functionality and steady-state number in obese mice. J Immunol 177, 5997-6006 (2006), which is incorporated by reference in its entirety. […] The activation status of the BMDCs was evaluated by measuring the expression of MHCII and co-stimulatory molecules using Flow Cytometry and by the production of pro-inflammatory cytokines (IL-6, TNF, IL-12 and IL-1β) which was assessed by ELISA. […]
The immature dendritic cells obtained in the day 6 were maturated with LPS in the presence of different concentrations of 9-PAHSA varying between 100 ng/mL to 20 ug/mL. The cells were maturated for 24 h and the maturation status analyzed by cytokine production and co-stimulatory molecules expression.
The cells were analyzed by Multicolor Flow cytometry. […] The cells were analyzed with an LSR II flow cytometer (BD) and FlowJo software. […]

purified CEL = biological target: T1, purified CEL (Homo sapiens, UniProt P19835); assay: Hydrolysis of 9-PAHSA by purified CEL; assay type: biochemical; conditions: micellar concentrations of NaTC
T1 construct: purchased R&D Systems
T1 sequence (P19835 21-753): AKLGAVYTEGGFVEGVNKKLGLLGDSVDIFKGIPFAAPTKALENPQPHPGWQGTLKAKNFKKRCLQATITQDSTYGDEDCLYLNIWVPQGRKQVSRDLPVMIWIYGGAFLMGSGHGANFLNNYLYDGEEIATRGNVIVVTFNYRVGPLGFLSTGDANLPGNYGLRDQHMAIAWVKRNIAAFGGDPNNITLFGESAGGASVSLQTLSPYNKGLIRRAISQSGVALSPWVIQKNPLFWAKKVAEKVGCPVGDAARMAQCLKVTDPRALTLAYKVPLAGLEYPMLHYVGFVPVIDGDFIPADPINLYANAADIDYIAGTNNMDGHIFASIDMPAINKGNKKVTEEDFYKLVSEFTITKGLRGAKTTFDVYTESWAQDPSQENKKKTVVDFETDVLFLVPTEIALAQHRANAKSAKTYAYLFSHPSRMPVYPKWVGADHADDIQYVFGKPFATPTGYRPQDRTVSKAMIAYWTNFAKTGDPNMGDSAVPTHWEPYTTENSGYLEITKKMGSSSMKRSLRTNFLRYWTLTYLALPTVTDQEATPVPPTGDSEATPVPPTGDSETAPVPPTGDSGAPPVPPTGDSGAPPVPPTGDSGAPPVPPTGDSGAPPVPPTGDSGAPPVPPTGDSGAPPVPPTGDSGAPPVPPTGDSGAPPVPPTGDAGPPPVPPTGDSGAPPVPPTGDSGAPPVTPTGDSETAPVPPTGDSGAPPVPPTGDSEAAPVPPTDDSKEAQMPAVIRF
Excerpt: To confirm the identification of CEL as a FAHFA hydrolase, a small amount of purified enzyme (available commercially from R&D Systems) was used.

With CCCCCCCCCCCCCCCC(=O)OC(CCCCCCCCC)CCCCCCCC(=O)O (stereo not drawn) [9-PAHSA, palmitoyl-9-hydroxystearic acid] the “LPS-induced dendritic cell activation (expression of MHCII, CD40, CD80, CD86)” value ([1]; 100 ng/mL LPS, 24 h, flow cytometry) was “prevents LPS-induced dendritic cell activation in a dose dependent manner”, the IL-12 production ([1]; LPS-activated dendritic cells, ELISA) was “blocks IL-12 production” and the “hydrolysis, measured by 9-HSA production” value (purified CEL) was “substantial hydrolysis”.
